The values below come from article PMC8934569 (Cancer chemotherapy and pharmacology, 2021).

For one data set, the system named is γH2AX in tumor. Description: γH2AX nuclear area positive score. The following applies: veliparib and AC, paired biopsy, baseline <5%. The data set is classed as in vivo, human.
In data set [1] the test system is recombinant cytochrome P450s. The settings on record: cited from earlier work.
For the next data set, the system named is metastatic breast cancer. The settings on record: veliparib with oral cyclophosphamide; cited from earlier work.

Turning to `C[C@]1(c2nc3c(C(N)=O)cccc3[nH]2)CCCN1` [veliparib, 2-[(R)-2-methylpyrrolidin-2-yl]-1H-benzimidazole-4-carboxamide], the “γH2AX nuclear area positive score (%NAP) after treatment” value in the data set with γH2AX in tumor (patient with partial response) is given as 3.23%; in the data set on γH2AX in tumor (patient with progressive disease), 10.96%; in the data set with γH2AX in tumor (patient with stable disease), 5.2%; in the data set on γH2AX in tumor (response could not be assessed), 4.5%. In data set [1] (known when the study was developed, no reference given), the “P450 involvement in incubations with recombinant cytochrome P450s” value is “potential involvement of CYP1A1, 2D6, 2C19, and 3A4”. In addition, in data set [1] (only partially by CYP1A2, 2C19 and 3A4), the Metabolizing enzymes result was “primarily metabolized by CYP2D6”. For the same compound, the Clinical benefit in the data set on metastatic breast cancer is listed as 19.2%.
